Biological target: T1, human αVβ6 (Homo sapiens, UniProt P06756+P18564)
T1 construct: purchased R & D systems 3817-AV
Assay: human αVβ6 HTRF binding assay
Details: recombinant human αVβ6 integrin, FITC-conjugated fibronectin
In short: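 Biotinylated recombinant αVβ6 (1.25 nM final) incubated with FITC-fibronectin (5 nM) 1 h at RT, then streptavidin-terbium (0.625 nM) added and incubated overnight at RT in the dark before HTRF read. Buffer: 20 mM Tris pH 7.4, 1 mM MgCl2, 1 mM MnCl2, 0.01% Tween 20, 0.01% BSA.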

T1 sequence (P06756 31-992 limits assumed): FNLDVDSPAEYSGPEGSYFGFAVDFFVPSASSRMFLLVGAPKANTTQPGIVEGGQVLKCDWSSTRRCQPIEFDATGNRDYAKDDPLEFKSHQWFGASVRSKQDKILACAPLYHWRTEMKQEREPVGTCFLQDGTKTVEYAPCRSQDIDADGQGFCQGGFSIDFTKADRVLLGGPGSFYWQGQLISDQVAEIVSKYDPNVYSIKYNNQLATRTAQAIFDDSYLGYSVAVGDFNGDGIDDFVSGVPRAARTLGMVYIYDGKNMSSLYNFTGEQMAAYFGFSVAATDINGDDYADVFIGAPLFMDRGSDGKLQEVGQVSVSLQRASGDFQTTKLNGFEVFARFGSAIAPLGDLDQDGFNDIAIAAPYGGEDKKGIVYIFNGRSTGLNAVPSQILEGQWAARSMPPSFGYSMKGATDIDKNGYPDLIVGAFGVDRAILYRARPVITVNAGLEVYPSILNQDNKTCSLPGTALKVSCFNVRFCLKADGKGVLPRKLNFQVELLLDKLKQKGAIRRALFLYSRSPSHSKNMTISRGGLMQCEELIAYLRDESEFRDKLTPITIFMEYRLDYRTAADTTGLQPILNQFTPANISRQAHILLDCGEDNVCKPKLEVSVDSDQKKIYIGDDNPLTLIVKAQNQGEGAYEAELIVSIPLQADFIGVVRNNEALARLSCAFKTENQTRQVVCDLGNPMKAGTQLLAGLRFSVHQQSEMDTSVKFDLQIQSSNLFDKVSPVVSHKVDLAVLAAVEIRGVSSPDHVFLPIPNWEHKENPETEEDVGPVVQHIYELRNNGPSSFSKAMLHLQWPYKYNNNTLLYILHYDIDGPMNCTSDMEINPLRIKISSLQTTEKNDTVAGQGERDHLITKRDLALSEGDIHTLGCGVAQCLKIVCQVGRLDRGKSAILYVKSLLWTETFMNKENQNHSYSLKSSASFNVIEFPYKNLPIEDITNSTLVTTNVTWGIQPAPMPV
T1 sequence (P18564 22-707 limits assumed): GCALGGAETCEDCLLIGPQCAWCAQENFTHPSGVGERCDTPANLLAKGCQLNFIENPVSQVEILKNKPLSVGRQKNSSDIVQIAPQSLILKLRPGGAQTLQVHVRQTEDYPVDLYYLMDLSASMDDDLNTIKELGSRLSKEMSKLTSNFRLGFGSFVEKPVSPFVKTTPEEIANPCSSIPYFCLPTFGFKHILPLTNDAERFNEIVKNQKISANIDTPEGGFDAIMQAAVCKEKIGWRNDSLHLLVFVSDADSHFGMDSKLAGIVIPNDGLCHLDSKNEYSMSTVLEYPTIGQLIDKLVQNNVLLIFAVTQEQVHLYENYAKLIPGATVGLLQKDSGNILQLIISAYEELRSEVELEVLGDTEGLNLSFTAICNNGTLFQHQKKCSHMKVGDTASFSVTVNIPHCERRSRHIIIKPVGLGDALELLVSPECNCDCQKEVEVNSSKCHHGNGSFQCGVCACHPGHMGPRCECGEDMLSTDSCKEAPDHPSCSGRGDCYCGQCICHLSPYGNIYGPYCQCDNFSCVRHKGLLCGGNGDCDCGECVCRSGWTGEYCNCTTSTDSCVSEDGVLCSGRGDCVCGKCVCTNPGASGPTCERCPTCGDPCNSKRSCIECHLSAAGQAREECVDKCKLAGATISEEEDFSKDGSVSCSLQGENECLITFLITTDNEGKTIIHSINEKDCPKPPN

Row | SMILES | IC50 [nM]
1 | COc1ccc(C(CC(=O)O)c2ncc(CCCCc3ccc4c(n3)NCCC4)n2C)cn1 (single isomer, unassigned) [Example 164, 3-(6-methoxypyridin-3-yl)-3-(1-methyl-5-(4-(5,6,7,8-tetrahydro-1,8-naphthyridin-2-yl)butyl)-1H-imidazol-2-yl)propanoic acid] | 460
2 | COc1ccc(C(CC(=O)O)c2ncc(CCCCc3ccc4c(n3)NCCC4)n2C)cn1 (single isomer, unassigned) [Example 165, 3-(6-methoxypyridin-3-yl)-3-(1-methyl-5-(4-(5,6,7,8-tetrahydro-1,8-naphthyridin-2-yl)butyl)-1H-imidazol-2-yl)propanoic acid] | 27
3 | COc1ccc(C(CC(=O)O)c2ncc(CCCCc3ccc4c(n3)NCCC4)n2C)cc1F (single isomer, unassigned) [Example 166, 3-(3-fluoro-4-methoxyphenyl)-3-(1-methyl-5-(4-(5,6,7,8-tetrahydro-1,8-naphthyridin-2-yl)butyl)-1H-imidazol-2-yl)propanoic acid] | 280
4 | COc1ccc(C(CC(=O)O)c2ncc(CCCCc3ccc4c(n3)NCCC4)n2C)cc1F (single isomer, unassigned) [Example 167, 3-(3-fluoro-4-methoxyphenyl)-3-(1-methyl-5-(4-(5,6,7,8-tetrahydro-1,8-naphthyridin-2-yl)butyl)-1H-imidazol-2-yl)propanoic acid] | 27
5 | COc1ccc(C(CC(=O)O)c2nc(CCCCc3ccc4c(n3)NCCC4)cn2C)cc1F (single isomer, unassigned) [Example 168, 3-(3-fluoro-4-methoxyphenyl)-3-(1-methyl-4-(4-(5,6,7,8-tetrahydro-1,8-naphthyridin-2-yl)butyl)-1H-imidazol-2-yl)propanoic acid] | 91
6 | COc1ccc(C(CC(=O)O)c2nc(CCCCc3ccc4c(n3)NCCC4)cn2C)cc1F (single isomer, unassigned) [Example 169, 3-(3-fluoro-4-methoxyphenyl)-3-(1-methyl-4-(4-(5,6,7,8-tetrahydro-1,8-naphthyridin-2-yl)butyl)-1H-imidazol-2-yl)propanoic acid] | 67
7 | COc1ccc(C(CC(=O)O)n2ncc(CCCc3ccc4c(n3)NCCC4)n2)cn1 (single isomer, unassigned) [Example 170, 3-(6-methoxypyridin-3-yl)-3-(4-(3-(5,6,7,8-tetrahydro-1,8-naphthyridin-2-yl)propyl)-2H-1,2,3-triazol-2-yl)propanoic acid] | 620
8 | COc1ccc(C(CC(=O)O)n2ncc(CCCc3ccc4c(n3)NCCC4)n2)cn1 (single isomer, unassigned) [Example 171, 3-(6-methoxypyridin-3-yl)-3-(4-(3-(5,6,7,8-tetrahydro-1,8-naphthyridin-2-yl)propyl)-2H-1,2,3-triazol-2-yl)propanoic acid] | 27
9 | COc1ccc(C(CC(=O)O)n2ncc(CCCc3ccc4c(n3)NCCC4)n2)cc1F (single isomer, unassigned) [Example 172, 3-(3-fluoro-4-methoxyphenyl)-3-(4-(3-(5,6,7,8-tetrahydro-1,8-naphthyridin-2-yl)propyl)-2H-1,2,3-triazol-2-yl)propanoic acid] | 53
10 | COc1ccc(C(CC(=O)O)n2ncc(CCCc3ccc4c(n3)NCCC4)n2)cc1F (single isomer, unassigned) [Example 173, 3-(3-fluoro-4-methoxyphenyl)-3-(4-(3-(5,6,7,8-tetrahydro-1,8-naphthyridin-2-yl)propyl)-2H-1,2,3-triazol-2-yl)propanoic acid] | 3
11 | O=C(O)CC(c1cnc2ccccc2c1)n1ncc(CCCc2ccc3c(n2)NCCC3)n1 (single isomer, unassigned) [Example 174, 3-(quinolin-3-yl)-3-(4-(3-(5,6,7,8-tetrahydro-1,8-naphthyridin-2-yl)propyl)-2H-1,2,3-triazol-2-yl)propanoic acid] | 170

— patent publication US11884661B2, “3-substituted propionic acids as αV integrin inhibitors” (BRISTOL-MYERS SQUIBB COMPANY, priority 2016, dated 2024)
